# Assay results taken from PMC12948427 (The Journal of Clinical Investigation, 2025).
# Several values for one entry are separate records, joined by “and”; a condition that tells them apart may be missing. Equal entries are not always repeated. Where two headings read alike, the source gives them in different places.
# What was measured:
# [1] = test system: SARS-CoV-2 Omicron BA.5; assay: microbe, parasite or virus in culture; assay type: cell-based; details: Severe acute respiratory syndrome coronavirus 2, 24 h, read-out: EC50 (IFA)
# [2] = test system: HCoV-NL63; assay: In vitro antiviral activity assay (IFA), HCoV-NL63; assay type: cell-based; details: for Inhibition rate (IFA): Fig 5C, MOI 0.1, 48 h
# [3] = test system: MHV; assay: microbe, parasite or virus in culture; assay type: cell-based, mouse hepatitis virus (MHV); details: Murine coronavirus, 24 h, read-out: EC50 (IFA)
# [4] = test system: HCoV-OC43; assay: In vitro antiviral activity assay (IFA), HCoV-OC43; assay type: cell-based; details: for Inhibition rate (IFA): Fig 5E, MOI 0.1, 48 h
# [5] = test system: HCoV-229E; assay: In vitro antiviral activity assay (IFA), HCoV-229E; assay type: cell-based; details: for Inhibition rate (IFA): Fig 5F, MOI 0.1, 48 h
# [6] = test system: WIV1; assay: microbe, parasite or virus in culture; assay type: cell-based, bat coronavirus WIV1; details: Bat coronavirus, 48 h, read-out: EC50 (IFA)
# [7] = test system: HCoV-NL63; assay: Infection of ALI-cultured primary HBEs, HCoV-NL63; assay type: cell-based
# Method: Primary HBEs at passage 3 or earlier were seeded at a density of 40,000 cells per well in Transwell inserts (Costar 6.5 mm Transwell, 0.4 μm Pore Polyester Membrane Inserts, catalog 3470) for expansion culture. The cells were cultured in expansion medium (PneumaCult-Ex Plus Medium, catalog 05040) until tight junctions were formed. Once tight junctions were established, the expansion medium in the upper chamber was discarded, and the medium in the lower chamber was replaced with ALI differentiation medium (PneumaCult-ALI Medium, catalog 05001). Cells were maintained under ALI conditions, with the medium being changed every 2 days. The differentiation process was carried out for 21 days, during which cell morphology and differentiation status were monitored. The fully differentiated cells were infected with HCoV-OC43, HCoV-229E, HCoV-NL63, or SARS-CoV-2 (MOI = 1), and fresh medium was changed 1 hour postinfection. Specific peptide was added into the medium every 24 hours. At 96 hours postinfection, cells in Transwell inserts were washed with 140 μL PBS per insert, and the wash fluid was collected to extract virus RNA followed by RT-qPCR. […] The fluorescence was measured using ImageJ (NIH).
# [8] = test system: WIV1; assay type: cell-based, bat coronavirus WIV1
# [9] = test system: SARS-CoV-2 Omicron BA.5; assay type: in vivo, K18-hACE2 C57BL/6 mice; details: mouse, in vivo
# [10] = test system: HCoV-229E; set-up: species or system K18-hACE2 C57BL/6 mice; details: mouse, in vivo
# [11] = test system: SARS-CoV-2 VLP; assay type: cell-based
# [12] = test system: MERS VLP; assay type: cell-based, MERS-CoV
# [13] = test system: HCoV-OC43 VLP; assay type: cell-based
# [14] = test system: MHV; assay type: cell-based, mouse hepatitis virus (MHV)
# [15] = assay type: cell-based
# [16] = test system: Calu-3 cells
# [17] = test system: MHV
# [18] = molecular target: hHgs 1-390 protein (Homo sapiens, UniProt O14964); assay: biochemical
# Chain of hHgs 1-390 protein (O14964 1-390): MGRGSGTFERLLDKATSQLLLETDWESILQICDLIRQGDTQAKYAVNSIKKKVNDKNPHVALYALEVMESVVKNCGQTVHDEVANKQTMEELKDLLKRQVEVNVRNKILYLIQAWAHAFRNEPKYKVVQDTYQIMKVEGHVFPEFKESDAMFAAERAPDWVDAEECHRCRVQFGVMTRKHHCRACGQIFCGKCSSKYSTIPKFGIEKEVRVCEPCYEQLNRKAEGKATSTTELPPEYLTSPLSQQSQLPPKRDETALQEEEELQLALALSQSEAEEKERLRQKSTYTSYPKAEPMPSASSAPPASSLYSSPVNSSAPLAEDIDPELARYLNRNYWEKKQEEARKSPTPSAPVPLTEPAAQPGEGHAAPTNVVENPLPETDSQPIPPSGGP
# [19] = Tolerability of RTB in mice; details: high concentrations (500 mg/kg)
# [20] = test system: MHV; assay: microbe, parasite or virus in culture; details: Murine coronavirus, 24 h, read-out: EC50, rescue of coronavirus-induced cytopathic effects
smiles,measurement,setting,value
"CCCC(=O)OC[C@@H](OC(=O)CCC)[C@@H](OC(=O)CCC)[C@H](Cn1c2nc(=O)[nH]c(=O)c-2nc2cc(C)c(C)cc21)OC(=O)CCC [RTB, riboflavin tetrabutyrate]",EC50,[1],4.09 µM
same,Inhibition rate (IFA),[2]; conc 30 (unit not given),-14.9284% and -12.1937% and -12.3632%
same,Inhibition rate (IFA),[2]; conc 100 (unit not given),-16.9149% and -18.5591% and -23.768%
same,Inhibition rate (IFA),[2]; conc 1000 (unit not given),-12.8364% and -7.587% and -17.221%
same,Inhibition rate (IFA),[2]; conc 10000 (unit not given),59.7114% and 61.0537% and 58.023%
same,Inhibition rate (IFA),[2]; conc 25000 (unit not given),99.7675% and 100.17% and 100.28%
same,EC50,"[2]; Human coronavirus NL63, 48 h, read-out: EC50 (IFA)",8.46 µM
same,EC50,[3],11.2 µM
same,EC50,"[4]; Betacoronavirus 1, OC43, 48 h, read-out: EC50 (IFA)",13.9 µM
same,Inhibition rate (IFA),[4]; conc 10 (unit not given),33.23% and 29.76% and 39.01%
same,Inhibition rate (IFA),[4]; conc 30 (unit not given),30.69% and 22.69% and 29.93%
same,Inhibition rate (IFA),[4]; conc 100 (unit not given),21.56% and 24.49% and 30.14%
same,Inhibition rate (IFA),[4]; conc 300 (unit not given),23.53% and 24.32% and 29.19%
same,Inhibition rate (IFA),[4]; conc 1000 (unit not given),26.08% and 27.96% and 36.83%
same,Inhibition rate (IFA),[4]; conc 3000 (unit not given),25.37% and 28.07% and 29.03%
same,Inhibition rate (IFA),[4]; conc 10000 (unit not given),32.25% and 33.08% and 32.48%
same,Inhibition rate (IFA),[4]; conc 25000 (unit not given),79.43% and 69.76% and 58.83%
same,Inhibition rate (IFA),[5]; conc 10 (unit not given),1.96% and 3.23% and 5.67%
same,Inhibition rate (IFA),[5]; conc 30 (unit not given),3.76% and 4.49% and 3.62%
same,Inhibition rate (IFA),[5]; conc 100 (unit not given),5.42% and 6.32% and 1.81%
same,Inhibition rate (IFA),[5]; conc 200 (unit not given),10.91% and 9.21% and 8.05%
same,Inhibition rate (IFA),[5]; conc 1000 (unit not given),20.9% and 20.96% and 21.52%
same,Inhibition rate (IFA),[5]; conc 5000 (unit not given),53.61% and 55.59% and 56.09%
same,Inhibition rate (IFA),[5]; conc 10000 (unit not given),87.09% and 86.7% and 87.17%
same,Inhibition rate (IFA),[5]; conc 20000 (unit not given),98.7% and 98.72% and 98.89%
same,EC50,"[5]; Human coronavirus 229E, 48 h, read-out: EC50 (IFA)",6.11 µM
same,EC50,[6],3.53 µM
same,extracellular viral gRNA levels (RT-qPCR),"[7]; Fig 5J, HCoV-NL63 MOI = 1, ALI-cultured HBEs, 96 h, RTB dose 5 (unit not given)",46 and 42 and 25
same,inhibition of infection in ALI cultures of HBEs,[7]; HCoV-NL63,"significant, dose-dependent inhibition"
same,inhibition of infection in ALI cultures of HBEs,[8],"significant, dose-dependent inhibition"
same,Survival curves: per-mouse event code,[9],0
same,body weight loss,[9],markedly reduced body weight loss
same,lung inflammation,[9],alleviated lung inflammation
same,pulmonary viral titers,[9],substantially lowered pulmonary viral titers
same,survival,[9],significantly improved survival
same,pulmonary viral titers,[10],lowered pulmonary viral titers
same,viral gRNA,[10],significantly reduced viral gRNA
same,virus-induced lung injury,[10],markedly attenuated virus-induced lung injury
same,VLPs' release,[11],concentration-dependent inhibition
same,VLPs' release,[12],concentration-dependent inhibition
same,VLPs' release,[13],concentration-dependent inhibition
same,Extracellular MHV gRNA (Figure S11A),"[14]; Ctr 17Cl-1 cells, 24 hpi",2.752 and 2.754 and 2.756
same,Extracellular MHV gRNA (Figure S11A),"[14]; Ctr 17Cl-1 cells, 48 hpi",3.4199 and 3.426 and 3.424
same,Extracellular MHV gRNA (Figure S11A),"[14]; Ctr 17Cl-1 cells, 72 hpi",4.001 and 4.062 and 3.972
same,Extracellular MHV gRNA (Figure S11A),"[14]; Hgs-KO1 17Cl-1 cells, 24 hpi",1.499 and 1.531 and 1.548
same,Extracellular MHV gRNA (Figure S11A),"[14]; Hgs-KO1 17Cl-1 cells, 48 hpi",1.985 and 1.987 and 1.914
same,Extracellular MHV gRNA (Figure S11A),"[14]; Hgs-KO1 17Cl-1 cells, 72 hpi",3.343 and 3.307 and 3.373
same,Extracellular MHV gRNA (Figure S11A),"[14]; Hgs-KO2 17Cl-1 cells, 24 hpi",1.087 and 1.162 and 1.202
same,Extracellular MHV gRNA (Figure S11A),"[14]; Hgs-KO2 17Cl-1 cells, 48 hpi",1.5876 and 1.652 and 1.594
same,Extracellular MHV gRNA (Figure S11A),"[14]; Hgs-KO2 17Cl-1 cells, 72 hpi",2.484 and 2.493 and 2.452
same,antiviral activity in Hgs-KO cells,"[14]; MHV, Hgs-KO 17Cl-1, RTB 25 μM or RDV 5 μM, compared with DMSO-treated Hgs-KO cells",failed to inhibit viral infection
same,"Inhibition, time-of-drug-addition (Figures S12A, S12B)","[15]; 1h, concentration 10000 (unit not given)",18.697 and 20.3699 and 24.961
same,"Inhibition, time-of-drug-addition (Figures S12A, S12B)","[15]; 1h, concentration 25000 (unit not given)",81.3431 and 85.284 and 85.9984
same,"Inhibition, time-of-drug-addition (Figures S12A, S12B)","[15]; 3h, concentration 3000 (unit not given)",10.0367 and 8.463 and 5.695
same,"Inhibition, time-of-drug-addition (Figures S12A, S12B)","[15]; 3h, concentration 10000 (unit not given)",25.0374 and 23.4524 and 23.7085
same,"Inhibition, time-of-drug-addition (Figures S12A, S12B)","[15]; 3h, concentration 25000 (unit not given)",87.678 and 84.0771 and 84.6309
same,"Inhibition, time-of-drug-addition (Figures S12A, S12B)","[15]; 5h, concentration 10000 (unit not given)",24.2683 and 28.1902 and 26.5679
same,"Inhibition, time-of-drug-addition (Figures S12A, S12B)","[15]; 5h, concentration 25000 (unit not given)",80.9022 and 85.7938 and 85.9604
same,"Inhibition, time-of-drug-addition (Figures S12A, S12B)","[15]; 7h, concentration 3000 (unit not given)",11.352 and 13.6306 and 7.232
same,"Inhibition, time-of-drug-addition (Figures S12A, S12B)","[15]; 7h, concentration 10000 (unit not given)",27.8545 and 21.5848 and 25.4245
same,"Inhibition, time-of-drug-addition (Figures S12A, S12B)","[15]; 7h, concentration 25000 (unit not given)",81.9707 and 81.2844 and 80.2961
same,"cell viability, Figure S9N",[16]; concentration 100,105.852 and 107.383 and 107.23
same,"cell viability, Figure S9N",[16]; concentration 200,101.565 and 101.412 and 100.391
same,"cell viability, Figure S9N",[16]; concentration 500,101.157 and 97.3801 and 98.3498
same,"cell viability, Figure S9N",[16]; concentration 1000,97.9415 and 98.4518 and 97.0228
same,"cell viability, Figure S9N",[16]; concentration 2000,101.616 and 101.361 and 95.2365
same,"cell viability, Figure S9N",[16]; concentration 5000,102.331 and 100.647 and 99.932
same,"cell viability, Figure S9N",[16]; concentration 10000,101.31 and 101.055 and 99.5747
same,"cell viability, Figure S9N",[16]; concentration 20000,107.281 and 106.312 and 107.792
same,"viability of infected cells (rescue of cytopathic effect), Figures S9G-L",[17]; concentration 10,46.6398 and 47.8192 and 45.9379
same,"viability of infected cells (rescue of cytopathic effect), Figures S9G-L",[17]; concentration 30,48.4931 and 47.9876 and 45.7132
same,"viability of infected cells (rescue of cytopathic effect), Figures S9G-L",[17]; concentration 100,49.4197 and 48.1842 and 47.2295
same,"viability of infected cells (rescue of cytopathic effect), Figures S9G-L",[17]; concentration 300,52.6488 and 47.5665 and 45.7132
same,"viability of infected cells (rescue of cytopathic effect), Figures S9G-L",[17]; concentration 1000,53.6878 and 50.8517 and 50.0094
same,"viability of infected cells (rescue of cytopathic effect), Figures S9G-L",[17]; concentration 3000,66.4358 and 61.915 and 62.9259
same,"viability of infected cells (rescue of cytopathic effect), Figures S9G-L",[17]; concentration 10000,81.009 and 81.0651 and 81.6829
same,"viability of infected cells (rescue of cytopathic effect), Figures S9G-L",[17]; concentration 25000,85.0805 and 84.4908 and 83.1711
same,IC50,[18],0.58 µM
same,cytotoxicity or adverse effects in mice,[19],no cytotoxicity or adverse effects
same,EC50,[20],3.48 µM
